Data taken from ChEMBL document CHEMBL1201862, “PubChem BioAssay data set” (2004).
Calls of active or inactive are those of the source.

Assays:
Beta-galactosidase = Beta-galactosidase (Escherichia coli, UniProt Q8VNN2); assay: PubChem AID 485352; type: functional
[1] = target: T1, Type-1 angiotensin II receptor (Homo sapiens, UniProt P30556); assay: antagonism of angiotensin II type 1 receptor – cell-based, uHTS hits, selectivity assay for APJ receptor antagonist project, dose response (AID 463214); type: functional;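 note: antagonist potency against angiotensin II stimulated AT1 response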
T1 sequence (P30556 whole entry): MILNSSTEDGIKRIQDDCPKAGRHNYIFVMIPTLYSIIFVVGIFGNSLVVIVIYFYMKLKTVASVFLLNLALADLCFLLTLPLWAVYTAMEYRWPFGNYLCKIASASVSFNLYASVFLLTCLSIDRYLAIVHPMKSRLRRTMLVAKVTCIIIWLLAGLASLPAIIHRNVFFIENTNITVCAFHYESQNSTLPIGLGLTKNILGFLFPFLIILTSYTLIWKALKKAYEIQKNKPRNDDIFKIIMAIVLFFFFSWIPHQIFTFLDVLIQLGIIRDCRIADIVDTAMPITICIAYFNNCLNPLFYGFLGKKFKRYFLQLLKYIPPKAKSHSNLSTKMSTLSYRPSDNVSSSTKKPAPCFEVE

[2] = target: T2, Mannose-6-phosphate isomerase (Homo sapiens, UniProt P34949); assay: MPI inhibition at elevated mannose 6-phosphate – biochemical, fluorescence intensity, high mannose 6-phosphate, primary screen (AID 1220)
T2 sequence (P34949 whole entry): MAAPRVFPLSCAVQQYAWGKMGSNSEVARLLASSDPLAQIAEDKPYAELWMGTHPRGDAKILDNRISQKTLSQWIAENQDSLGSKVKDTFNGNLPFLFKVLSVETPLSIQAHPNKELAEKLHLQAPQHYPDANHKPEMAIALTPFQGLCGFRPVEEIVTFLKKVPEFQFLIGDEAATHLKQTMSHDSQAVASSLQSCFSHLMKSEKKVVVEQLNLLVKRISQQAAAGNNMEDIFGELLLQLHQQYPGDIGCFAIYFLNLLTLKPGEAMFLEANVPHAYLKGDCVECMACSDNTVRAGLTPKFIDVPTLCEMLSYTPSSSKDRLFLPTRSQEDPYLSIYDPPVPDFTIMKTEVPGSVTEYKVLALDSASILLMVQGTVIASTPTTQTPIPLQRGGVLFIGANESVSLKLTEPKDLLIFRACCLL

[3] = target: T3, Sentrin-specific protease 8 (Homo sapiens, UniProt Q96LD8); type: functional
T3 sequence (Q96LD8 whole entry): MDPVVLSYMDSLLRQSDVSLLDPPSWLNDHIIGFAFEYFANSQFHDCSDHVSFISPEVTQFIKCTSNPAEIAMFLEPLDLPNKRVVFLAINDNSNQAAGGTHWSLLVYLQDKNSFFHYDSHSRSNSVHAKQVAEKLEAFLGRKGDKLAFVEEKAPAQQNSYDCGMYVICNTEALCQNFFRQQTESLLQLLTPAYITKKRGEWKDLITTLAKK

SUMO-activating enzyme [4] = target: T4, SUMO-activating enzyme (Homo sapiens, UniProt Q9UBT2); assay: blockers of SAE1/SAE2–UBC9 SUMO transfer – biochemical, HTRF, uHTS, primary screen (AID 2006); type: protein-complex assay
[5] = target: T3, Sentrin-specific protease 8; type: functional; remark: listed apart in the source
SUMO-activating enzyme [6] = target: T4, SUMO-activating enzyme; assay: blockers of UBC9-mediated SUMO conjugation – biochemical, AlphaScreen, SUMOylation inhibitor project, confirmation (AID 2018); type: functional
Vero [7] = assay: cells; type: functional, cell-based; details: Chlorocebus sabaeus
[8] = NIH3T3 cell viability loss – ATP luminescence, mouse fibroblasts, counter-screen, dose response (AID 2010); type: functional, cell-based;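 note: cells exposed to compound for about 90 hours before reading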
[9] = decrease of insulin promoter-GFP reporter – imaging, high-content screening, mouse beta cells (AID 1628); type: functional; details: MIN6
Vero [10] = assay: cells; type: functional; details: Chlorocebus sabaeus
[11] = MIN6 cell viability loss – mouse insulinoma, cytotoxicity control, dose response (AID 2122); type: functional;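 note: confirmatory high-throughput counterscreen run to flag cytotoxic compounds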
[12] = Trypanosoma cruzi growth suppression in host cells – NIH3T3 host cells, beta-gal luminescence, confirmation (AID 2044); type: functional, cell-based;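 note: intracellular parasites grown in NIH/3T3 mouse fibroblasts as host cells; luminescent beta-galactosidase reporter signal from transgenic T. cruzi replicating inside host cells; inhibitors lower the luminescence signal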
Protein RecA = target: T5, Protein RecA (Mycobacterium tuberculosis, UniProt P9WHJ3); assay: Fluorescence Cell-Free Homogeneous Dose Retest to Identify Inhibitors of RecA-Intein Splicing Activity. [Related pubchem assays (depositor defined):AID2097, AID2223, AID489010, AID492950]; type: functional
T5 sequence (P9WHJ3 whole entry): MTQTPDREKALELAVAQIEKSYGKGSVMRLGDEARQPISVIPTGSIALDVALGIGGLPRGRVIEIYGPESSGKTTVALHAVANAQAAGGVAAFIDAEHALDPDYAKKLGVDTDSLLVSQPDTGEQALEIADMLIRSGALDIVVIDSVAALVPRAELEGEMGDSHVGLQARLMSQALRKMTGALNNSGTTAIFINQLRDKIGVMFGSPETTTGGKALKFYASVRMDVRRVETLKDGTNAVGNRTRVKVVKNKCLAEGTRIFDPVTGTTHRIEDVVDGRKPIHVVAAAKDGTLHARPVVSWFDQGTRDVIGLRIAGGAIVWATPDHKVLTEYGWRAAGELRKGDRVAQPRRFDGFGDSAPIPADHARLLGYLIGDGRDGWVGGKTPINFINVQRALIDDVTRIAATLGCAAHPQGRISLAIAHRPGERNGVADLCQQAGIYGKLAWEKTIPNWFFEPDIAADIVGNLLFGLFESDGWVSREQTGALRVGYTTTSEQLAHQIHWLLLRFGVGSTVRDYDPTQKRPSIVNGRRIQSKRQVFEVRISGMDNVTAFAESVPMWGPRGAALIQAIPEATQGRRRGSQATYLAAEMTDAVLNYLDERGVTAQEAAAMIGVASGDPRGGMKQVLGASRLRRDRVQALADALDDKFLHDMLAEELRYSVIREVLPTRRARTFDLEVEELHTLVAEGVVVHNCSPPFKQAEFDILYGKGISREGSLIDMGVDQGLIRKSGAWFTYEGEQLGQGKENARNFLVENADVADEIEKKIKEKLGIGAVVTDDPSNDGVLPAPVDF

Vero [13] = assay: viability of Vero cells under compound – cytotoxicity control for flavivirus capping enzyme inhibitors (AID 588742); type: functional; details: Chlorocebus sabaeus
[14] = target: T6, Replicative DNA helicase DnaB (Mycobacterium tuberculosis, UniProt P9WMR3); assay: DnaB intein splicing inhibitors, dose response, biochemical, cell-free fluorescence (AID 449749); type: functional
T6 sequence (P9WMR3 whole entry): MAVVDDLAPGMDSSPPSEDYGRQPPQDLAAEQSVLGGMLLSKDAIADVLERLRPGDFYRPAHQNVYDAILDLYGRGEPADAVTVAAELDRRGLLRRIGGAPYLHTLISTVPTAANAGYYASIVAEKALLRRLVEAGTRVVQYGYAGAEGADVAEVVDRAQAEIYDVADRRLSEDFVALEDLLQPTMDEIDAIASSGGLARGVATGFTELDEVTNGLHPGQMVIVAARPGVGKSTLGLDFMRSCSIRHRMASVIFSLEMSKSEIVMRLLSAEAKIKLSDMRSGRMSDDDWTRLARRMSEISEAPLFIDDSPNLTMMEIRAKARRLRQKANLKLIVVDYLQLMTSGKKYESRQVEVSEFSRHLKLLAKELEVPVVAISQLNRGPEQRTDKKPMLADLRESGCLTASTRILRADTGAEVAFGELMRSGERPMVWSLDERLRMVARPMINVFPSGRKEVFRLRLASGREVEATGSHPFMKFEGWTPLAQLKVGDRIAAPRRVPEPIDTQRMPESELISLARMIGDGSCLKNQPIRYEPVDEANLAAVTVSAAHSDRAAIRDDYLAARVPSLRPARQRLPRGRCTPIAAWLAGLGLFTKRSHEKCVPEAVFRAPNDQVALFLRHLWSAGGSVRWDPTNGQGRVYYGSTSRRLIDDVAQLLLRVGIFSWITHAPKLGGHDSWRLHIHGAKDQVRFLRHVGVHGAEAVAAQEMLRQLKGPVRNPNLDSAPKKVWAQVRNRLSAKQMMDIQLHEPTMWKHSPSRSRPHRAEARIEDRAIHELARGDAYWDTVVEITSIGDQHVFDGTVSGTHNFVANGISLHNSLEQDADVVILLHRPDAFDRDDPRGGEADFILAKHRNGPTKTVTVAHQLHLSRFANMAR

[15] = microbe, parasite or virus in culture; type: functional; details: Mycobacterium tuberculosis

T4 sequence (Q9UBE0 whole entry): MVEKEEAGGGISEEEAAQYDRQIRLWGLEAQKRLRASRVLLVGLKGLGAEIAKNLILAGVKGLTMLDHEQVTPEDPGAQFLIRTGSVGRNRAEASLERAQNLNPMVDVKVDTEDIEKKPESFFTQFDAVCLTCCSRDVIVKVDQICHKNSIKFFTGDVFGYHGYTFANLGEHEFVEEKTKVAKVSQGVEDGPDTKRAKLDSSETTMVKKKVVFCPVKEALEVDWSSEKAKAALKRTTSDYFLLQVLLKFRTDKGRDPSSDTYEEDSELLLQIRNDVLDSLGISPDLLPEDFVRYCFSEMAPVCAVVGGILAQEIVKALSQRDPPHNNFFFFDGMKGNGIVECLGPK
T4 sequence (Q9UBT2 whole entry): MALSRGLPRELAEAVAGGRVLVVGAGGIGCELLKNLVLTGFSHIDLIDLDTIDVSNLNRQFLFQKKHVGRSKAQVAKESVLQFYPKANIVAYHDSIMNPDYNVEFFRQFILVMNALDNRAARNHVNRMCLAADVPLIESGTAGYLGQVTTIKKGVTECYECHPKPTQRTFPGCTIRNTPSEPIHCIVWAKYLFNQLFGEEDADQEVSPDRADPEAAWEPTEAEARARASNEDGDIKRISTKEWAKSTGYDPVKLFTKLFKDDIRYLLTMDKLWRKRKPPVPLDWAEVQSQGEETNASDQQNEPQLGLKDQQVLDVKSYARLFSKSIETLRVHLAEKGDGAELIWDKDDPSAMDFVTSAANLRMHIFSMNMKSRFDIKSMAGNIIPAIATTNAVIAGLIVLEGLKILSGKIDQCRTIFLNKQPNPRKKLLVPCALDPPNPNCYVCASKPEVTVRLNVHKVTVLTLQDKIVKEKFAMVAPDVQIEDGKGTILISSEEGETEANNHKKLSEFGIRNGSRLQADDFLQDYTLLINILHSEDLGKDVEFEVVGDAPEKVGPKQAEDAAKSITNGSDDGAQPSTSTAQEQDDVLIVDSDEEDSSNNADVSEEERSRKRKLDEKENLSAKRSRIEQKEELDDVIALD
Sequence of Beta-galactosidase (Q8VNN2 whole entry): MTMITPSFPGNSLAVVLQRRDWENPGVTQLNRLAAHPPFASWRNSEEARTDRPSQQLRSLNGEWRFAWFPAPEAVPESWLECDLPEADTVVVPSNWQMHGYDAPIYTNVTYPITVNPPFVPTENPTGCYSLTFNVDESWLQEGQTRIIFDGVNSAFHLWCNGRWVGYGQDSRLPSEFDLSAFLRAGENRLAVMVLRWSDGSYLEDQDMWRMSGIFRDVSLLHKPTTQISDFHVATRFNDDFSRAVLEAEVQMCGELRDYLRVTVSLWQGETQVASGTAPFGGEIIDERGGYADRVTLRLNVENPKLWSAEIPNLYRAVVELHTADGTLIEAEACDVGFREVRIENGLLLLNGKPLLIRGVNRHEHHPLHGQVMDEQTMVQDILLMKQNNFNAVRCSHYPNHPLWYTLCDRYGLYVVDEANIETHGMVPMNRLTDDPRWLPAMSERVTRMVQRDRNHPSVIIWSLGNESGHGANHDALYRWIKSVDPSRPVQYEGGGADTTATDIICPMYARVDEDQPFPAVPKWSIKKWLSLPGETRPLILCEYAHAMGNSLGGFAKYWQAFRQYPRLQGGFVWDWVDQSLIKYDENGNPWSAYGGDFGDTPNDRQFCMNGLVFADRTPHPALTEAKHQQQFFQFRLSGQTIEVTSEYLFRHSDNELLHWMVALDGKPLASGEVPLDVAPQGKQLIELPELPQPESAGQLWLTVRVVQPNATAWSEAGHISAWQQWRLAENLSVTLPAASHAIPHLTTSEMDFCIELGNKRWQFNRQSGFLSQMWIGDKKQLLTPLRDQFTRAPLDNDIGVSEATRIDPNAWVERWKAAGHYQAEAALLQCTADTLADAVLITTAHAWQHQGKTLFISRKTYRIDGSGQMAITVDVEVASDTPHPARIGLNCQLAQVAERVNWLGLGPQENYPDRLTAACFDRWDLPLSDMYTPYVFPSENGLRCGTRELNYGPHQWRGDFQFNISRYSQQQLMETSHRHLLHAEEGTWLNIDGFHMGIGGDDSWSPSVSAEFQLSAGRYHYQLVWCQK

O=C1Nc2ccc([N+](=O)[O-])cc2C1=Nc1cccc(CO)c1
EC50 (Beta-galactosidase): > 40 µM (inactive) | IC50 [1]: > 40 µM (not active) | IC50 [2]: 12.4 µM (active) | IC50 [3]: 8.6 µM (active) | IC50 (SUMO-activating enzyme [4]): 18.7 µM (active) | IC50 [5]: 7.06 µM (active) | IC50 (SUMO-activating enzyme [6]): 5.51 µM (active)

Oc1nc(SCc2nc(O)c3cnn(-c4ccccc4)c3n2)nc2ccccc12
IC50 (Vero [7]): 1.08 µM (active)

Cc1ccc(OCC(O)Cn2c(=N)n(CCN3CCCCC3)c3ccccc32)cc1 (centres undefined)
EC50 [8]: > 60 µM (not active) | IC50 [9]: 1.28 µM (active) | CC50 (Vero [10]): 13.8 µM (active) | IC50 [11]: 3.24 µM (active) | EC50 [12]: 3.83 µM (active)

Oc1cc(N=Nc2ccc(Cl)cc2)nc(O)n1
EC50 (Protein RecA): 1.2 µM (active) | IC50 (Vero [7]): 21.9 µM (active) | CC50 (Vero [10]): > 25 µM (active) | CC50 (Vero [13]): 14.8 µM (active) | AC50 [14]: 2.37 µM (active) | CC50 [15]: 8.44 µM (active)
